Assay [1] deals with cisplatin induced acute kidney injury (CI-AKI) in mice. Nature of the assay: Cisplatin-induced acute kidney injury (CI-AKI) in mice, Compound 3 (Example 11). Format: in vivo, female C57BL/6J mice. The protocol: The aim of the study was to investigate the efficacy of test compounds in the model of cisplatin induced acute kidney injury (CI-AKI) in mice. […] Serum analysis for urea (BUN) was performed on the 5th day and 9th days after cisplatin administration. The mean body weight loss per group was calculated every day of the study as percentage loss of initial (day 0) weight for each individual animal.
Study design, animal selection, handling and treatment were all in accordance with the CRO's study protocols and Institutional Animal Care and Use Guidelines. Animal treatment and serum samples preparation were conducted by the Animal Laboratory personnel at the CRO. 60 female C57BL/6J mice 9-12 weeks old were randomized by body weight and divided into 2 groups, 30 animals each. Body weights ranged from 13.9 to 22.0 g with an average body weight across all groups 17.75 g (SD=1.30; CV=7.3%). Each mouse was treated with a single dose via IP route of administration with cisplatin at the dose of 11 mg/kg on the day 0 of the study. […] The mice in Group 1 remained untreated after the cisplatin injection until the terminal sacrifice.
Cisplatin was administered without dilution as a factory-made 1 mg/ml solution for infusion at the injection volume of 11 ml/kg for the dose of 11 mg/kg. […] Only freshly prepared formulation was used for each dosing; each working formulation batch was prepared immediately prior to the administration. The working formulations were sterile filtered using 0.2 μm cellulose acetate syringe filters before injections. The dosing volume for the test compound was 5 ml/kg of body weight. The working formulations were administered as transparent clear solutions. Intraperitoneal (IP) route of administration was used in the study. Urea (BUN) was determined in the serum using a commercial kit according to the manufacturer's instructions. […] The rate of absorbance change at λ=340 nm is proportional to the urea concentration. […] Creatinine was measured using Modified Jaffe's method, without deproteinization. […]

Assay [2] has as its system cisplatin-induced acute kidney injury (CI-AKI) mouse model. Nature of the assay: Cisplatin-induced acute kidney injury (CI-AKI) mouse model, Compound 22 (Example 9). The format is in vivo, female C57BL/6J mice. The settings on record: for gradual recovery of mean body weight, onset: cisplatin 11 mg/kg IP day 0. The protocol:
The aim of the study was to investigate the efficacy of test compound(s) in a (mouse) model for acute kidney injury. Specifically, the study investigated the efficacy of test compound(s) in cisplatin-induced acute kidney injury (CI-AKI) mouse model. For example, the effect of daily repeated intraperitoneal (IP) administration of Compound 22 at doses of 50 mg/kg for 7 consecutive days in four different treatment regimens on development of pathology in mice in CI-AKI model was evaluated. Serum analysis for urea (BUN) was performed on the 5th day and 12th days after cisplatin administration. The mean body weight loss per group was calculated every day of the study as percentage loss of initial (day 0) weight for each individual animal.
Study design, animal selection, handling and treatment were all in accordance with the CRO's study protocols and Institutional Animal Care and Use Guidelines. Animal treatment and serum samples preparation were conducted by the Animal Laboratory personnel at the CRO. 100 female C57BL/6J mice 11-14 weeks old were randomized by body weight and divided into five groups, 20 animals each. Body weights ranged from 16.9 to 22.5 g with an average body weight across all groups 19.54 g (SD=1.04; CV=5.3%). Each mouse was treated with a single dose via IP route of administration with cisplatin at the dose of 11 mg/kg on the day 0 of the study. The mice in Group 2 and 4 were repeatedly treated with Compound 22 at the dose of 50 mg/kg with an interval of 24 h for seven consecutive days starting from Day 2 or Day 0 of the study, respectively. […]
To induce acute kidney injury, cisplatin was administered without dilution as a factory-made 1 mg/ml solution for infusion at the injection volume of 11 ml/kg for the dose of 11 mg/kg. […] Urea (BUN) was determined in the serum using a commercial kit according to the manufacturer's instructions. […] The rate of absorbance change at λ=340 nm is proportional to the urea concentration. […]

Assay [3] has as its system cisplatin-induced acute kidney injury (AKI) in male Sprague Dawley rats. Nature of the assay: Cisplatin-induced acute kidney injury (AKI) in rats, 90 minutes infusion (Example 12). Format: in vivo. The settings on record: for body weight change over baseline (BWC): day 0-6, after post-treatment period, cisplatin 5 mg/kg IP. The method, then: The goal of this study was to assess the effect of compound 22 at the doses of 50 mg/kg and 25 mg/kg on the development of cisplatin-induced acute kidney injury (AKI) in male Sprague Dawley rats. Compound 22 was administrated repeatedly seven consecutive days by 90 minutes infusion into a jugular vein using automatic pumps. Treatment was initiated simultaneously with the single intraperitoneal (IP) administration of cisplatin at the dose of 5 mg/kg. The experimental animal's mortality was recorded daily. […] Serum analysis for Creatinine and Urea were performed on day −4th (blank), 1st, 3rd, 6th, 9th, and 12th (terminal) day of the study.
Rat's jugular vein catheterization. Rat's jugular vein catheterization procedure was performed on −3rd day of the study. All experimental animals were anesthetized prior to surgical intervention by Telazol at the dose of 40 mg/kg body weight and Xylazine at the dose of 8 mg/kg body weight. The anesthetized rat was placed onto a heated surgical platform. The surgical area was shaved and gently scrubbed with a drop of iodine in 96% ethanol solution. The skin incision (2 cm) was made on the right of the midline of the neck at the level of the clavicle using a scalpel. Dissected jugular vein, separated from the salivary and lymphatic tissues, was visualized and isolated approximately 5 mm section of the vessel. The cranial end of the vessel was tied using 4-0 silk ligatures. By micro surgical scissors an incision was made to pass the catheter into the vein approximately 20 mm towards the heart. The caudal end of the jugular vein was tied to catheter's collar with silk ligatures aimed to secure the place of catheter. The free end of catheter was tunneled subcutaneously and connected to a transcutaneous button that features an external port with a cap at the nape of the animal's neck. […] To prevent dehydration after the surgery animals were injected with 2 ml physiological saline intraperitoneal. To prevent catheter occlusion and ensure its functioning flushing 0.10-0.20 ml amount of physiological saline with anticoagulant (Heparin, 500 IU/ml) was applied. First time catheter flushing was performed immediately after catheter was properly positioned in the jugular vein and fixed there. The procedure was repeated prior to infusion start. When a catheter was not in use, it was locked. The infusion was started three days after the catheter placement.
Fluid infusion. Programmable automatic syringe pumps system allowed for a fluid infusion of delivering determined volume at the selected infusion time. After the catheter flushing animals were connected to the tether and the swivel setup permitted free movement of the animal during the infusion. The duration of infusion was 90 minutes. The volume of infusion was 10 ml/kg; infusion rate was determined automatically according to time of infusion and volume of the administrated formulation. The infusions were performed from 10 am to […] in a random order.
Drug formulation. Route and volume of administration. Cisplatin was administered without dilution as a factory-made 1 mg/ml solution for infusion at the injection volumes of 5 ml/kg which corresponded to the doses of 5 mg/kg. IP route was used for cisplatin administration in the study. Compound 22 was formulated in sterile conditions in physiological saline at the concentrations 5 mg/ml for the dose level 50 mg/kg and 2.5 mg/ml for the dose level 25 mg/kg and was administrated as true solution. All formulations were sterilized by filtration via Minisart RC 0.2 μm sterile syringe filter. Compound 22 infusion duration was 90 minutes. The administrated volume for all group was 10 ml/kg of the body weight.
Frequency and duration of the application. cisplatin was administered once on day 0 of the study, 30 min before first infusion. Compound 22 as well as vehicle was administrated 7 consecutive days (day 0-day 6) once per day.
Duration of the experimental period. […]

Setting [4] is: 50 mg/kg IP, 5th day after the cisplatin injection.

Structures are written as SMILES.

For the compound `CN(C)CCOC(=O)CCCSc1ccccc1` [Compound 3, 2-(dimcthylamino)ethyl 4-(phenylsulfanyl)butanoate], in assay [1] (setting [4]), the “mean level of creatinine in serum compared to G1” value is “significantly less” and the “mean level of urea in serum compared to G1” value is reported as “significantly less”. For the same compound, the “gradual recovery of mean body weight, onset” value (from here on “gradual recovery”) in assay [1] (G2: 50 mg/kg IP every 24 h for seven days from Day 2, cisplatin 11 mg/kg IP day 0) is on record as “beginning from the sixth day of the study”.

Consider `C[N+](C)(C)CCOC(=O)CCCSc1ccccc1.Cl` [Compound 22, N,N,N-trimethyl-2-{[4-(phenylsulfanyl)butanoyl]oxy}ethan-1-aminium chloride], for which the “gradual recovery” value in assay [2] (G2-G3: 50 mg/kg IP once or twice a day, days 2-8) was “beginning from the fifth day of the study”. Further, the “mean level of urea in serum compared to G1” value in assay [2] (G2-G5, 50 mg/kg IP, 5th day after the cisplatin injection) is recorded as “significantly less”. Also, the “gradual recovery” value in assay [2] (G4-G5: 50 mg/kg IP once or twice a day, days 0-6) is “beginning from the seventh day of the study”. In addition, in assay [3] (25 mg/kg), the “body weight change, comparison with the cisplatin, vehicle group” value is “No statistical significance” and the “histopathology scores compared to Vehicle-treated animals with cisplatin injection” value is given as “no significant difference”. The “body weight change over baseline (BWC)” value in assay [3] (25 mg/kg infusion once per day) is recorded as −17.6%. Moreover, in assay [3] (25 mg/kg, H&E, terminal day), the “kidney histopathology: cast deposition” value was “medium”, the “kidney histopathology: connective tissue accumulation” value is “mild”, the “kidney histopathology: glomerulonephritis” value is “mild” and the “kidney histopathology: hemorrhages” value was “occasional”. Also, in assay [3] (25 mg/kg, H&E, terminal day), the “kidney histopathology: interstitial nephritis” value is recorded as “medium/severe”, the “kidney histopathology: loss of brush border” value is given as “severe”, the “kidney histopathology: loss of tubules” value is listed as “mild” and the “kidney histopathology: necrotic loci” value is reported as “medium-frequent”. Moreover, in assay [3] (25 mg/kg, H&E, terminal day), the “kidney histopathology: tubular atrophy” value is recorded as “mild”, the “kidney histopathology: tubular dilation” value is recorded as “medium”, the “kidney histopathology: tubular epithelium flattening” value is “medium/severe” and the “kidney histopathology: tubular epithelium loss” value is given as “medium”. In assay [3] (25 mg/kg, H&E, terminal day), the “kidney histopathology: tubular hyperplasia” value was “occasional”. In assay [3] (25 mg/kg, day 6), the “serum Creatinine values compared to the cisplatin, vehicle-treated group” value is on record as “significant decrease” and the “serum Urea values compared to the cisplatin, vehicle group” value is “significant decrease”. Further, in assay [3] (50 mg/kg), the “body weight change, comparison with the cisplatin, vehicle group” value is given as “No statistical significance” and the “histopathology scores compared to Vehicle-treated animals with cisplatin injection” value is listed as “no significant difference”. Also, the “severity of weight loss in individual animals (frequency distribution analysis)” value in assay [3] (50 mg/kg and 25 mg/kg, end of the study period, compared to cisplatin treatment) is given as “decreases the severity of weight loss”. The “body weight change over baseline (BWC)” value in assay [3] (50 mg/kg infusion once per day, survived animals) is −3.9%. Further, in assay [3] (50 mg/kg, H&E, terminal day), the “kidney histopathology: cast deposition” value is recorded as “mild”, the “kidney histopathology: connective tissue accumulation” value is “mild”, the “kidney histopathology: interstitial nephritis” value was “mild/medium” and the “kidney histopathology: loss of brush border” value is “severe”. For the same compound, in assay [3] (50 mg/kg, H&E, terminal day), the “kidney histopathology: loss of tubules” value is “occasional”, the “kidney histopathology: necrotic loci” value is “occasional”, the “kidney histopathology: tubular atrophy” value is on record as “medium/mild” and the “kidney histopathology: tubular basophilia” value is given as “occasional”. Also, in assay [3] (50 mg/kg, H&E, terminal day), the “kidney histopathology: tubular dilation” value was “medium”, the “kidney histopathology: tubular epithelium flattening” value is listed as “medium”, the “kidney histopathology: tubular epithelium loss” value is “medium” and the “kidney histopathology: tubular epithelium vacuolation” value is on record as “occasional”. The “kidney histopathology: tubular hyperplasia” value in assay [3] (50 mg/kg, H&E, terminal day) is recorded as “occasional”. Also, the “serum Creatinine values compared to the cisplatin, vehicle-treated group” value in assay [3] (50 mg/kg, day 6) was “significant decrease”. Besides, in assay [3] (50 mg/kg, day 9), the “serum Creatinine values compared to the cisplatin, vehicle-treated group” value is listed as “significant decrease” and the “serum Urea values compared to the cisplatin, vehicle group” value is “significant decrease”. The “cisplatin-induced AKI development (serum Creatinine and Urea levels during infusions and post-infusion period)” value in assay [3] (both tested doses (50 mg/kg and 25 mg/kg)) was “prevented cisplatin-induced AKI development”.
